Data reported in US20260200849A1, “CATIONIC LIPIDS AND PREPARATION METHOD THEREOF” (RiboX Therapeutics HK Limited, priority 2024, published 2026).
“And” between values parts separate entries of the source, which are not always exact repeats. Equal values may be shown once. Each block holds one molecule with its values, some of them ahead of it.

Legend:
[1] = In vivo lipid metabolism by IV: ionizable lipid concentration in plasma and liver by LC-MS/MS; set-up: species or system Sprague-Dawley (SD) rats; settings: IV 0.15 mg/kg RNA-LNPs (hEPO), male SD rats, individual animals N=3
Description: In Vivo Lipid Metabolism by IV 7-8 week old, male Sprague-Dawley (SD) rats (N=3) were injected with 0.15 mg*kg−1 of RNA-LNPs encoding for hEPO by intravenous injection. At 1-/6-/96-/168-hours post injection, about 100 μL blood will be harvested and immediately added to the EDTAK2 containing tube. Place on wet ice and then centrifuged at 3000 g×5 min to obtain plasma. 30 μL plasma will be aliquoted to the 1.5 mL tubes. At terminal 6-/168-hours post injection, the rats will be euthanized with CO2, hemorrhaged immediately with cardiac puncture, respectively. The livers were harvested, weighed and washed with saline, then put into 50 ml centrifuge tube placed in liquid nitrogen, then transferred into wet ice, and finally stored at −80° C. immediately. Both plasma and liver samples were used for ionizable lipid concentration quantification by LC-MS/MS. The lower limit of quantitation (LLOQ) is 1 ng/mL in plasma or 11 ng/g in liver. BQL—Below the lower limit of quantitation (LLOQ).

[2] = test system: IL-6; assay: In vivo tolerability by IV: serum IL-6 by Luminex; set-up: species or system C57BL/6J mice; settings: Formulation No. 001, RNA No. 331, male C57BL/6J mice, 1.0 mg*kg/1 intravenous
How it was run: (§1)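 Male C57BL/6J mice aged 6-8 weeks (N=3) received 1.0 mg*kg−1 firefly-luciferase RNA-LNPs intravenously, with PBS as negative control. Serum taken at 2 and 24 h post-injection was assayed for MCP-1 and IL-6 by Luminex.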

[3] = test system: Balb/c mice; assay: In vivo expression by IV, 0.05 mg/kg luciferase RNA-LNPs, IVIS luminescence; settings: female Balb/c mice, 0.05 mg*kg−1 intravenous
How it was run: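 Female Balb/c mice (7-8 weeks, N=3) received 0.05 mg*kg−1 firefly-luciferase RNA-LNPs IV. Luciferin (15 mg/ml) was given IP at 24 and 72 h post-dose for IVIS whole-body luminescence. A second run imaged whole body, liver and spleen at 24 h only.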

[4] = test system: C57BL/6J mice; assay: In vivo expression by IV, 1.0 mg/kg luciferase RNA-LNPs, whole-body and organ IVIS luminescence; settings: Formulation No. 001, RNA No. 331; male C57BL/6J mice, 1.0 mg*kg−1 intravenous, 24-hours post injection
How it was run: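 Male C57BL/6J mice, 6-8 weeks old (N=3), received 1.0 mg*kg−1 firefly-luciferase RNA-LNPs IV. At 24 h post-dose, luciferin (15 mg/ml) was given IP, and whole-body, liver, spleen, kidney, small and large intestine luminescence was imaged by IVIS.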

[5] = test system: Hep G2 cells; assay: In vitro toxicity: Hep G2 cell viability by CellTiter-Glo; assay type: cell-based; settings: 72 hours post transfection, cell only = 100%
Description: 2E5 Hep G2 cells were transfected with 1 μg/mL RNA-LNPs. At 72 hours post transfection, cell viability (2-well repeat) was determined with the CellTiter-Glo® reagent kit, according to the kit protocol, measured by a luminometer. Cell only as control (100%).
The cell viability was calculated according to the following formula: […]

[6] = test system: MCP-1; assay: In vivo tolerability by IV: serum MCP-1 by Luminex; set-up: species or system C57BL/6J mice; settings: Formulation No. 001, RNA No. 331, male C57BL/6J mice, 1.0 mg*kg/1 intravenous
How it was run: as §1

[7] = RNA encapsulation efficacy (EE %) by Quant-IT Ribogreen kit; assay type: physicochemical; settings: LNP
Description: (§2) The LNP size and polydispersity index (PDI), determined by dynamic light scattering (DLS), and zeta potential were measured by a Zetasizer machine (Malvern). RNA concentration and encapsulation efficacy (EE %) were analyzed by the Quant-IT Ribogreen kit by calculating the percentage encapsulation at 100%—(RNA-LNPs/RNA-LNPs with Triton X-100).

[8] = test system: Hep G2 cells; assay: In vitro expression: luciferase activity in Hep G2 cells transfected with RNA-LNPs; assay type: cell-based; settings: 100 ng/mL RNA-LNPs, 72 hours post transfection
Description: 2E5 Hep G2 cells were transfected with 100 ng/mL of RNA-LNPs encoding for firefly-luciferase. At 72 hours post transfection, the cells were washed and lysed. The luciferase expression (2-well repeat) was determined in the cell lysates with the luciferase assay reagent kit (Promega), according to the kit protocol, luciferase activity was measured by a luminometer.

[9] = LNP size and polydispersity index (PDI) by dynamic light scattering (Zetasizer); assay type: physicochemical; settings: for Size (nm): RNA No. 331
Description: as §2

[10] = test system: injection site skin; assay: In vivo tolerability after intradermal injection: H&E staining of injection site skin; set-up: species or system C57BL/6J mice; key to Infiltration, mononuclear cells, dermis/subcutaneous, focal, Grade / Edema, subcutaneous, focal, Grade / Erosion, focal, Grade / Skin, Grade: 1==minimal; 2=mild; 3=moderate; 4=marked; 5=severe; N=Normal; NA=Not applicable; —=No data; settings: intradermal 0.15 mg/kg, 72 h, Formulation 001, RNA 331
Description: 7-8 week old, female C57BL/6J mice (N=3) were injected with 0.15 mg*kg−1 of RNA-LNIPs encoding for firefly-luciferase by intradermal injection. At 72-hours post injection, injection site skin from each animal was collected in 10% formalin, for H&E staining. PBS group (N=2) as control. (Note: 1==minimal, 2=mild, 3=moderate, 4=marked, 5=severe; N=Normal; NA=Not applicable; —=No data)

[11] = test system: C57BL/6J mice; assay: In vivo expression by ID, whole-body/injection site skin/lymph node luminescence; settings: intradermal 0.15 mg/kg, 72 h post injection, female C57BL/6J mice N=3, Formulation 001, RNA 331
Description: 7-8 week old, female C57BL/6J mice (N=3) were injected with 0.15 mg*kg−1 of RNA-LNPs encoding for firefly-luciferase by intradermal injection. At 72-hours post injection, animals were intraperitoneally injected with 15 mg/mi of Luciferin substrate and whole-body/injection site skin/lymph node luminescence were determined by a bioluminescent in vivo imaging system (IVIS).

[12] = Formulation No. 001, RNA No. 331, 24-hours post injection
[13] = Formulation No. 001, RNA No. 019 (hEPO)
[14] = Formulation No. 001, RNA No. 331
[15] = Formulation No. 010, RNA No. 331

Plasma (ng/mL), ionizable lipid concentration ([1]; 1 h post injection): 3316 ng/mL and 5944 ng/mL and 9980 ng/mL
Plasma (ng/mL), ionizable lipid concentration ([1]; 6 h post injection): 691 ng/mL and 8.59 ng/mL
concentration at 6 h ([1]; male, Sprague-Dawley, rat, liver, iv, 0.15 mg/kg, 6 h post injection, read-out: Liver (ng/g), ionizable lipid concentration): 14 ng/g
EE (%) [7, 13]: 93.44%
EE (%) [7, 14]: 95.74%
Size (nm) ([9]; Formulation No. 001 (Ionizable lipid:DSPC:cholesterol:DMG-PEG2000 = 50:10:38.5:1.5, N/P 6)): 70.72 nm
PDI [9, 13]: 0.08
Size [9, 13]: 70.30 nm
PDI [9, 14]: 0.03
SMILES: CCCCCCCCCC(=O)OCCCCCCCOC(=O)C(COC(=O)NCCN1CCCCCC1)NC(=O)OCCCCCCCCOC(=O)C(CCCCCC)CCCCCCCC (stereo not shown) [Lipid 934]
IL-6 at 2 h ([2]; 2 hours post injection): 40.7 pg/mL
IL-6 at 24 h ([2]; 24 hours post injection): 7.83 pg/mL
Liver (p/s) (Mean) [3, 12]: 6.73E+08 p/s
Spleen (p/s) (Mean) [3, 12]: 2.04E+08 p/s
Whole body (p/s) (Mean) [3, 12]: 1.87E+09 p/s
Kidney (p/s) [4]: 4.10E+07 p/s
Large intestine (p/s) [4]: 1.17E+08 p/s
Liver (p/s) [4]: 1.82E+09 p/s
Small intestine (p/s) [4]: 6.60E+08 p/s
Spleen (p/s) [4]: 1.17E+09 p/s
Whole body (p/s) [4]: 2.46E+09 p/s
In vitro cell viability (%) (Mean) ([5]; Formulation No. 001, RNA No. 331, 1 μg/mL RNA-LNPs): 94.29%
MCP-1 at 2 h ([6]; 2 hours post injection): 1360 pg/mL
MCP-1 at 24 h ([6]; 24 hours post injection): 229 pg/mL
In vitro Expression (Mean) ([8]; Formulation No. 001, RNA No. 331 (firefly-luciferase)): 5.28E+05

EE (%) [7, 14]: 95.62%
EE (%) [7, 15]: 95.94%
PDI [9, 14]: 0.08
Size [9, 14]: 71.29 nm
Size (nm) ([9]; Formulation No. 010 (Ionizable lipid:DSPC:cholesterol:DSPE-PEG2000 = 38:30:30:2, N/P 6)): 57.90 nm
PDI [9, 15]: 0.10
SMILES: CCCCC/C=C\C/C=C\CCCCCCCC(=O)NC(COC(=O)NCCN1CCCCCC1)C(=O)OCCCCCC(=O)OCC(CCCCCCCC)CCCCCCCCCC (stereo not shown) [Lipid 729]
Edema, subcutaneous, focal, Grade ([10]; per animal): 1 (2×) and —
Erosion, focal, Grade ([10]; per animal): —
Infiltration, mononuclear cells, dermis/subcutaneous, focal, Grade ([10]; per animal): 1
Total score ([10]; sum of lesion grades of the group (N=3)): 5
Whole body at 24 h (p/s) (Mean) ([3]; Formulation No. 010, RNA No. 331, 24 hours post injection): 1.86E+08 p/s
Whole body at 72 h (p/s) (Mean) ([3]; Formulation No. 010, RNA No. 331, 72 hours post injection): 4.99E+07 p/s
Injection site Skin (p/s) [11]: 1.33E+07 p/s
Lymph node (p/s) [11]: 1.42E+06 p/s
Whole body (p/s) [11]: 6.76E+07 p/s
In vitro cell viability (%) (Mean) ([5]; 1 μg/mL RNA-LNPs, Formulation 001, RNA 331): 65.07%
In vitro cell viability (%) (Mean) ([5]; Formulation No. 010, RNA No. 331, 1 μg/mL RNA-LNPs): 80.55%
In vitro Expression (Mean) ([8]; Formulation 001, RNA 331): 1.64E+05
In vitro Expression (Mean) ([8]; Formulation No. 010, RNA No. 331 (firefly-luciferase)): 3.44E+05
